# Data as given in patent US20250262198A1, “METHOD FOR TREATING MULTIPLE SCLEROSIS” (BEIJING INNOCARE PHARMA TECH CO., LTD., priority 2022, published 2025).
# How the values were obtained:
# [1] = test system: MOG35-55-induced EAE mouse model; assay: MOG35-55-induced EAE mouse model of multiple sclerosis, oral orelabrutinib; format: in vivo, C57BL/6 mouse
# Description: Multiple sclerosis (MS) is a chronic neuroinflammatory demyelinating disorder of the central nervous system (CNS). EAE (Experimental Autoimmune Encephalomyelitis) is the most common animal model of human MS as it is especially useful to investigate neuroinflammatory pathways. The synthesized peptide MOG35-55-induced EA E mouse model was used to evaluate the therapeutic potential of orelabrutinib. 100 μL emulsion consisted of 0.75 mg/ml MOG35-55 and 4 mg/mL CFA were injected subcutaneously into two different sites on each hind flank of each C57BL/6 mouse. 300 ng of pertussis toxin in 100 μL of PBS were injected intraperitoneally at the day of immunization and two days later. Mice were randomized into 2 groups as follows: vehicle and orelabrutinib 30 mg/kg/day. Each group had 10 animals. On the day of immunization, animals were dosed QD by PO gavage with either vehicle or test compound for 21 days.
# [2] = test system: patients with relapsing-remitting multiple sclerosis (RRMS); assay: Randomized, double-blind, placebo-controlled phase 2 study of orelabrutinib in RRMS patients (Core part); format: in vivo, human; conditions: for percent reduction of cumulative number of new Gd+T1 brain lesions relative to placebo: ITT population; for Adjusted mean cumulative number of new Gd+T1 lesions from W 4 to W 24 / Adjusted mean cumulative number of new Gd+T1 lesions at Week 12 / % Reduction of cumulative number of new Gd+T1 lesions from Week 4 to Week 24 vs placebo/50 mg QD switch arm / % Reduction of cumulative number of new Gd+T1 brain lesions vs placebo / Annualized relapse rate (ARR): PHS population; for Adjusted mean cumulative number of new Gd+T1 lesions at Week 12: placebo 4.34
# Description: This is a randomized, double-blind, placebo-controlled, phase 2 study of orelabrutinib in patients with relapsing-remitting multiple sclerosis (RRMS) that consists of 2 parts: a Core part and an Open-label Extension (OLE) part. The Core part is completed, and the OLE part is on-going.
# The completed Core part consisted of a 4-week screening period and 24-week treatment period. Patients with RRMS were randomly assigned to 1 of 4 treatment groups in a 1:1:1:1 ratio: placebo, orelabrutinib 50 mg once daily (QD), orelabrutinib 50 mg twice daily (BID), or orelabrutinib 80 mg QD. At Week 13, patients in the placebo cohort were switched to orelabrutinib 50 mg QD.
# Patients with RRMS were randomly assigned to 1 of 4 treatment groups: placebo, orelabrutinib (50 mg, once daily [QD]), orelabrutinib (80 mg QD) and orelabrutinib (50 mg, twice daily [BID]) at a 1:1:1:1 ratio. • Cohort 1: Placebo (Week 1-12)/orelabrutinib 50 mg QD (Week 13-24) • Cohort 2: Orelabrutinib 50 mg QD (Week 1-24) • Cohort 3: Orelabrutinib 80 mg QD (Week 1-24) • Cohort 4: Orelabrutinib 50 mg BID (Week 1-24)
# At week 12 of the treatment period, subjects in Cohort 1 were switched to orelabrutinib at a starting daily dose of 50 mg. A separate open-label extension (OLE) study was developed to allow continued dosing, provided that safety and tolerability were acceptable.
# Placebo or orelabrutinib was orally administered daily starting on Day 1 of the treatment period. Subjects returned to study site on Day 8 and every 4 weeks starting from Day 1 for trial visits and were assessed for safety and efficacy.
# • Intent-to treat (ITT) population. 158 patients randomized: 40 in placebo, 37 in 50 mg QD cohort, 41 in 50 mg BID cohort, and 40 in 80 mg QD cohort. • 3 force majeure events during the study caused missing MRI data at Week 4, 8, or 12 timepoints: Ukraine war & crisis, COVID-19 pandemic outbreak, and FDA's partial clinical hold. • Post-hoc analysis set (PHS) population. 115 patients remaining after excluding patients who missed any one of the 3 MRI data points within first 12 weeks: 27 in placebo, 30 in 50 mg QD, 29 in 50 mg BID, and 29 in 80 mg QD. • 132 patients completed 12 weeks of treatment and 127 patients completed 24 weeks of treatment.
# (PHS Population, N=115) The adjusted mean cumulative number, percent reduction (orelabrutinib vs placebo) associated with p-value are estimated from a Poisson regression model with a Pearson scale parameter with a log link function and offset by log number of scans as of Week 12. Baseline number of Gd+T1 brain lesions is included in the model as a continuous covariate.
# The adjusted mean cumulative numbers are estimated from Poisson regression models with a Pearson scale parameter with a log link function and offset by log number of scans as of that visit. Baseline number of Gd+T1 brain lesions is included in the model as a continuous covariate.
smiles,measurement,setting,value
"C=CC(=O)N1CCC(c2ccc(C(N)=O)c(-c3ccc(Oc4ccccc4)cc3)n2)CC1 [orelabrutinib, 2-(4-phenoxyphenyl)-6-[1-(prop-2-enoyl)piperidin-4-yl]pyridine-3-carboxamide]",average clinical score (EAE),"[1]; 30 mg/kg/day PO QD, day 15 post-immunization, vehicle 2.0",0.9
same,average clinical score (EAE),"[1]; 30 mg/kg/day PO QD, day 21, p<0.05, vehicle 1.5",0.6
same,body weight loss associated with EAE,"[1]; 30 mg/kg/day PO QD, vs vehicle",reduced weight loss
same,reduction of EAE score,[1]; 30 mg/kg/day oral,50%
same,EAE severity,"[1]; 30 mg/kg/day oral, vs vehicle",markedly ameliorated EAE severity
same,percent reduction of cumulative number of new Gd+T1 brain lesions relative to placebo,"[2]; Week 12, 50 mg BID",78.8%
same,percent reduction of cumulative number of new Gd+T1 brain lesions relative to placebo,"[2]; Week 12, 50 mg QD",73.3%
same,percent reduction of cumulative number of new Gd+T1 brain lesions relative to placebo,"[2]; Week 12, 80 mg QD",80.5%
same,Adjusted mean cumulative number of new Gd+T1 lesions from W 4 to W 24,[2]; 50 mg BID (N=29),1.08
same,Adjusted mean cumulative number of new Gd+T1 lesions at Week 12,[2]; 50 mg BID (N=29),0.82
same,% Reduction of cumulative number of new Gd+T1 lesions from Week 4 to Week 24 vs placebo/50 mg QD switch arm,"[2]; 50 mg BID, P 0.0114",83.3%
same,Adjusted mean cumulative number of new Gd+T1 lesions from W 4 to W 24,[2]; 50 mg QD (N=30),2.10
same,Adjusted mean cumulative number of new Gd+T1 lesions at Week 12,[2]; 50 mg QD (N=30),1.14
same,% Reduction of cumulative number of new Gd+T1 lesions from Week 4 to Week 24 vs placebo/50 mg QD switch arm,"[2]; 50 mg QD, P 0.0958",67.4%
same,Adjusted mean cumulative number of new Gd+T1 lesions from W 4 to W 24,[2]; 80 mg QD (N=29),0.50
same,Adjusted mean cumulative number of new Gd+T1 lesions at Week 12,[2]; 80 mg QD (N=29),0.42
same,% Reduction of cumulative number of new Gd+T1 lesions from Week 4 to Week 24 vs placebo/50 mg QD switch arm,"[2]; 80 mg QD, P 0.0037",92.3%
same,% Reduction of cumulative number of new Gd+T1 brain lesions vs placebo,"[2]; Week 12, 50 mg BID (N=29), P 0.0073",81.0%
same,% Reduction of cumulative number of new Gd+T1 brain lesions vs placebo,"[2]; Week 12, 50 mg QD (N=30), P 0.0278",73.8%
same,% Reduction of cumulative number of new Gd+T1 brain lesions vs placebo,"[2]; Week 12, 80 mg QD (N=29), P 0.0018",90.4%
same,Annualized relapse rate (ARR),"[2]; Week 24, 50 mg BID",0.12
same,Annualized relapse rate (ARR),"[2]; Week 24, 50 mg QD",0.05
same,Annualized relapse rate (ARR),"[2]; Week 24, 80 mg QD",0.06
same,Annualized relapse rate (ARR),"[2]; Week 24, placebo/50 mg QD switch arm (placebo Week 1-12, orelabrutinib 50 mg QD Week 13-24)",0.14
same,Adjusted mean cumulative number of new Gd+T1 lesions from W 4 to W 24,[2]; switch arm: placebo Week 1-12 / orelabrutinib 50 mg QD Week 13-24 (N=27),6.45
same,Annualized relapse rate (ARR) compared to the placebo group,"[2]; all orelabrutinib cohorts, Week 12, sustained through Week 24",reduced
same,control of new T1 lesions,"[2]; all orelabrutinib cohorts, after 4 weeks of treatment, effect sustained up to 24 weeks",Control of new T1 lesions was achieved
